This passage reports IC50 results from patent EP4806891A1 (Kangbaida (Sichuan) Biotechnology Co., Ltd., priority 2023, dated 2025).

Molecules are shown by their SMILES.

The target of this test is T1, HEK-Blue-hTLR8 cells (Homo sapiens, UniProt Q9NR97).
T1 construct: expressed in transfected cells; host or cells: HEK-Blue-hTLR8 cells (HEK293-derived reporter line)
T1 sequence (Q9NR97 27-1041): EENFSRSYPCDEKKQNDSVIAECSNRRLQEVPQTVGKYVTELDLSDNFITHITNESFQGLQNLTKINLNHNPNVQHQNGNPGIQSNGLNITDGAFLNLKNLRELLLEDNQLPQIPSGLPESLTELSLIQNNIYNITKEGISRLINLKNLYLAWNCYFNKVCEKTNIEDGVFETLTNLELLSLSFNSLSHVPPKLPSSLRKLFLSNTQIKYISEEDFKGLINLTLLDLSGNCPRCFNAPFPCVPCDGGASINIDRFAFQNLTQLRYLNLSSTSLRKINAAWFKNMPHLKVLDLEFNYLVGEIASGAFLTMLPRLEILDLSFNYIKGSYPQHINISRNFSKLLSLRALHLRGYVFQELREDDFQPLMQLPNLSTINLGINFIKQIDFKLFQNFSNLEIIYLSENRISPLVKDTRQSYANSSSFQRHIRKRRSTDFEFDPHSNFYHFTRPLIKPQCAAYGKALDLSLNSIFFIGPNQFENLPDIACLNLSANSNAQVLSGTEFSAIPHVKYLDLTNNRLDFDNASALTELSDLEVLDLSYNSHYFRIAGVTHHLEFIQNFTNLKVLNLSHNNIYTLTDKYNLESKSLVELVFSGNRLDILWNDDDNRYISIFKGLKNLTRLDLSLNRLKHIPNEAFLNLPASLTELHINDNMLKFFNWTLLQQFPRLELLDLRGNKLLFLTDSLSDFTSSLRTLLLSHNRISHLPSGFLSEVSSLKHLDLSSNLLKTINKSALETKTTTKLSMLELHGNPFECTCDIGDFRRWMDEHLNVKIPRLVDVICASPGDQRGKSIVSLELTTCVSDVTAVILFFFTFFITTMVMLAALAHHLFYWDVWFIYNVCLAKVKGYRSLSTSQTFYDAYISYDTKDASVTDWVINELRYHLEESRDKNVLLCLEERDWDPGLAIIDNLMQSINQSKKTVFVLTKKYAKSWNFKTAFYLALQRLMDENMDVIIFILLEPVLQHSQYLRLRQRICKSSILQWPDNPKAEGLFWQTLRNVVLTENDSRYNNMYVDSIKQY
Nature of the test: HEK-Blue-hTLR8 cell inhibition assay. It is filed as cell-based. The following applies: R848 3 µM, 16 h, OD 620 nm, read-out: TLR8 IC50. Put shortly: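 Cells were pre-incubated 4 h, then co-treated 16 h at 37 °C with compound (10 doses, 0.5–10000 nM final) plus R848 (0.8 µM for TLR7, 3 µM for TLR8) or ODN2006 (1 µM, TLR9). Reporter OD620 gave inhibition relative to DMSO blank and agonist-only controls; IC50 came from curve fitting.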

The term IC50 denotes the concentration that inhibits the measured activity by half. Take `CN(C)[C@H]1CC[C@H](c2nnc([C@]34CN(c5ccc(C#N)c6ncccc56)C[C@@]3(C(F)(F)F)C4)o2)CC1` [Compound 21, 5-((1S,5R)-1-(5-((1R,4S)-4-(dimethylamino)cyclohexyl)-1,3,4-oxadiazol-2-yl)-5-(trifluoromethyl)-3-azabicyclo[3.1.0]hexan-3-yl)quinoline-8-carbonitrile]: the IC50 is under 100 nM.
In the case of `N#Cc1ccc(N2C[C@]3(c4nnc(C5=CCNC5)o4)C[C@]3(C(F)(F)F)C2)c2cccnc12` [Compound 22, 5-((1S,5R)-1-(5-(2,5-dihydro-1H-pyrrol-3-yl)-1,3,4-oxadiazol-2-yl)-5-(trifluoromethyl)-3-azabicyclo[3.1.0]hexan-3-yl)quinoline-8-carbonitrile] it was under 100 nM; in that of `CN1CCC(n2cnc([C@]34CN(c5ccc(C#N)c6ncccc56)C[C@@]3(C(F)(F)F)C4)n2)CC1` [Compound 23, 5-((1S,5R)-1-(1-(1-methylpiperidin-4-yl)-1H-1,2,4-triazol-3-yl)-5-(trifluoromethyl)-3-azabicyclo[3.1.0]hexan-3-yl)quinoline-8-carbonitrile], under 100 nM; in that of `N#Cc1ccc(N2C[C@]3(c4nnc(C#CCN5CCOCC5)o4)C[C@]3(C(F)(F)F)C2)c2cccnc12` [Compound 24, 5-((1S,5R)-1-(5-(3-morpholinoprop-1-yn-1-yl)-1,3,4-oxadiazol-2-yl)-5-(trifluoromethyl)-3-azabicyclo[3.1.0]hexan-3-yl)quinoline-8-carbonitrile], under 100 nM.
For `CN(C)CC#Cc1nnc([C@]23CN(c4ccc(C#N)c5ncccc45)C[C@@]2(C(F)(F)F)C3)o1` [Compound 25, 5-((1S,5R)-1-(5-(3-(dimethylamino)prop-1-yn-1-yl)-1,3,4-oxadiazol-2-yl)-5-(trifluoromethyl)-3-azabicyclo[3.1.0]hexan-3-yl)quinoline-8-carbonitrile], the IC50 was under 100 nM.
The result for `CC1(C)CC(Cc2nnc([C@]34CN(c5ccc(C#N)c6ncccc56)C[C@@]3(C(F)(F)F)C4)o2)CC(C)(C)N1` [Compound 26, 5-((1S,5R)-1-(5-((2,2,6,6-tetramethylpiperidin-4-yl)methyl)-1,3,4-oxadiazol-2-yl)-5-(trifluoromethyl)-3-azabicyclo[3.1.0]hexan-3-yl)quinoline-8-carbonitrile] reads under 100 nM; that for `N#Cc1ccc(N2C[C@]3(c4nnc(N5CCOCC5)o4)C[C@]3(C(F)(F)F)C2)c2cccnc12` [Compound 27, 5-((1S,5R)-1-(5-morpholino-1,3,4-oxadiazol-2-yl)-5-(trifluoromethyl)-3-azabicyclo[3.1.0]hexan-3-yl)quinoline-8-carbonitrile], under 1000 nM.
In the case of `CN1CC(Cc2nnc([C@]34CN(c5ccc(C#N)n6ncc(F)c56)C[C@@]3(C(F)(F)F)C4)o2)C1` [Compound 30, 3-fluoro-4-((1S,5R)-1-(5-((1-methylazetidin-3-yl)methyl)-1,3,4-oxadiazol-2-yl)-5-(trifluoromethyl)-3-azabicyclo[3.1.0]hexan-3-yl)pyrazolo[1,5-a]pyridine-7-carbonitrile] it was under 100 nM; in that of `CN1CCC(Oc2nnc([C@]34CN(c5ccc(C#N)n6ncc(F)c56)C[C@@]3(C(F)(F)F)C4)o2)CC1` [Compound 31, 3-fluoro-4-((1S,5R)-1-(5-((1-methylpiperidin-4-yl)oxy)-1,3,4-oxadiazol-2-yl)-5-(trifluoromethyl)-3-azabicyclo[3.1.0]hexan-3-yl)pyrazolo[1,5-a]pyridine-7-carbonitrile], under 100 nM; in that of `N#Cc1ccc(N2C[C@]3(c4nnc(C5(F)CNC5)o4)C[C@]3(C(F)(F)F)C2)c2cccnc12` [Compound 32, 5-((1S,5R)-1-(5-(3-Fluoroazetidin-3-yl)-1,3,4-oxadiazol-2-yl)-5-(trifluoromethyl)-3-azabicyclo[3.1.0]hexan-3-yl)quinoline-8-carbonitrile], under 100 nM.
In the case of `N#Cc1ccc(N2C[C@]3(c4nnc(C5CCNCC5F)o4)C[C@]3(C(F)(F)F)C2)c2cccnc12` (some centres unmarked) [Compound 33] it was under 100 nM.
For the molecule `CN1CCC(c2nnc([C@]34CN(c5ccc(C#N)c6ncccc56)C[C@@]3(C(F)(F)F)C4)o2)CC1=O` (some centres unmarked) [Compound 34], the IC50 is under 1000 nM.
On to `N#Cc1ccc(N2C[C@]3(c4nnc(CC5CNC5)o4)C[C@]3(C(F)(F)F)C2)c2cccnc12` [Compound 35, 5-((1S,5R)-1-(5-(azetidin-3-ylmethyl)-1,3,4-oxadiazol-2-yl)-5-(trifluoromethyl)-3-azabicyclo[3.1.0]hexan-3-yl)quinoline-8-carbonitrile], for which the IC50 is under 1000 nM.
For `CN1CC(Cc2nnc([C@]34CN(c5ccc(C#N)c6ncccc56)C[C@@]3(C(F)(F)F)C4)o2)C1` [Compound 36, 5-((1S,5R)-1-(5-((1-methylazetidin-3-yl)methyl)-1,3,4-oxadiazol-2-yl)-5-(trifluoromethyl)-3-azabicyclo[3.1.0]hexan-3-yl)quinoline-8-carbonitrile], the IC50 is under 100 nM.
As to `CN1CCC(Cc2nnc([C@]34CN(c5ccc(C#N)c6ncccc56)C[C@@]3(C(F)(F)F)C4)o2)CC1` [Compound 37, 5-((1S,5R)-1-(5-((1-methylpiperidin-4-yl)methyl)-1,3,4-oxadiazol-2-yl)-5-(trifluoromethyl)-3-azabicyclo[3.1.0]hexan-3-yl)quinoline-8-carbonitrile], the IC50 is under 100 nM.
In the case of `CN1CCC(Cc2nnc([C@]34CN(c5ccc(C#N)c6ncccc56)C[C@@]3(C(F)(F)F)C4)n2C)CC1` [Compound 38, 5-((1S,5R)-1-(4-methyl-5-((1-methylpiperidin-4-yl)methyl)-4H-1,2,4-triazol-3-yl)-5-(trifluoromethyl)-3-azabicyclo[3.1.0]hexan-3-yl)quinoline-8-carbonitrile] it was under 1000 nM; in that of `CN1CC(c2nnc([C@]34CN(c5ccc(C#N)c6ncccc56)C[C@@]3(C(F)(F)F)C4)o2)C1` [Compound 39, 5-((1S,5R)-1-(5-(1-methylazetidin-3-yl)-1,3,4-oxadiazol-2-yl)-5-(trifluoromethyl)-3-azabicyclo[3.1.0]hexan-3-yl)quinoline-8-carbonitrile], under 100 nM.
The result for `N#Cc1ccc(N2C[C@]3(c4nnc(CN5CCOCC5)o4)C[C@]3(C(F)(F)F)C2)c2cccnc12` [Compound 40, 5-((1S,5R)-1-(5-(morpholinomethyl)-1,3,4-oxadiazol-2-yl)-5-(trifluoromethyl)-3-azabicyclo[3.1.0]hexan-3-yl)quinoline-8-carbonitrile] reads under 1000 nM; that for `N#Cc1ccc(N2C[C@]3(c4nnc(CN5CCCC5)o4)C[C@]3(C(F)(F)F)C2)c2cccnc12` [Compound 41, 5-((1S,5R)-1-(5-(Pyrrolidin-1-ylmethyl)-1,3,4-oxadiazol-2-yl)-5-(trifluoromethyl)-3-azabicyclo[3.1.0]hexan-3-yl)quinoline-8-carbonitrile], under 1000 nM.
The result for `CN(C)Cc1nnc([C@]23CN(c4ccc(C#N)c5ncccc45)C[C@@]2(C(F)(F)F)C3)o1` [Compound 42, 5-((1S,5R)-1-(5-((dimethylamino)methyl)-1,3,4-oxadiazol-2-yl)-5-(trifluoromethyl)-3-azabicyclo[3.1.0]hexan-3-yl)quinoline-8-carbonitrile] reads under 1000 nM.
Turning to `N#Cc1ccc(N2C[C@]3(c4nnc(CCN5CCOCC5)o4)C[C@]3(C(F)(F)F)C2)c2cccnc12` [Compound 43, 5-((1S,5R)-1-(5-(morpholinoethyl)-1,3,4-oxadiazol-2-yl)-5-(trifluoromethyl)-3-azabicyclo[3.1.0]hexan-3-yl)quinoline-8-carbonitrile], the IC50 is under 100 nM.
Take `Cn1c(CN2CCCC2)nnc1[C@]12CN(c3ccc(C#N)c4ncccc34)C[C@@]1(C(F)(F)F)C2` [Compound 44, 5-((1S,5R)-1-(4-methyl-5-(pyrrolidin-1-ylmethyl)-4H-1,2,4-triazol-3-yl)-5-(trifluoromethyl)-3-azabicyclo[3.1.0]hexan-3-yl)quinoline-8-carbonitrile]: the IC50 is over 1000 nM.
The result for `N#Cc1ccc(N2C[C@]3(c4nnc(C5CNCC(F)C5)o4)C[C@]3(C(F)(F)F)C2)c2cccnc12` (stereo partly drawn) [Compound 45, 5-((1R,5S)-1-((difluoro-3-methyl)-12-fluoraneyl)-5-(5-(5-fluoropiperidin-3-yl)-1,3,4-oxadiazol-2-yl)-3-azabicyclo[3.1.0]hexan-3-yl)quinoline-8-carbonitrile] reads under 100 nM.
